Measured values from patent publication US9777002B2, “Inhibitors of the renal outer medullary potassium channel” (Merck Sharp & Dohme Corp., priority 2012, dated 2017).

Target: T1, hROMK (hKir1.1) (Homo sapiens, UniProt P48048)
T1 construct: expressed in transfected cells
T1 sequence (P48048 1-391): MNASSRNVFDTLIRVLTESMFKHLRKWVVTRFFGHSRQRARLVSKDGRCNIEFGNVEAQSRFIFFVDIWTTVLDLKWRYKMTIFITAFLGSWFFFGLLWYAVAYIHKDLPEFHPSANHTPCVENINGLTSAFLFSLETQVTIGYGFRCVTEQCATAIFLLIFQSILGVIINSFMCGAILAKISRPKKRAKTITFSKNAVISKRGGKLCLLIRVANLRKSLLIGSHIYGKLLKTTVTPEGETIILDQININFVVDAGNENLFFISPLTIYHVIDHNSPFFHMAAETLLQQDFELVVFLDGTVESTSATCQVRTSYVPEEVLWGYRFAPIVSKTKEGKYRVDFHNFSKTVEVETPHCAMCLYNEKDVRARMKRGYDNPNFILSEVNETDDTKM
Test: Thallium Flux Assay
Assay type: cell-based
Details: HEK293 cells stably expressing hROMK (hKir1.1)
Description: Cell Culture Conditions—HEK293 cells stably expressing hROMK (hKir1.1) were grown at 37° C. in a 10% CO2 humidified incubator in complete growth media: Dulbecco's Modified Eagle Medium supplemented with non-essential amino acids, Penicillin/Streptomycin/Glutamine, G418 and FBS. At >80% confluency, aspirate the media from the flask and rinse with 10 mL Calcium/Magnesium-free PBS. Add 5 mL of 1× trypsin (prepared in Ca/Mg Free PBS) to T-225 flask and return flask to 37° C./CO2 incubator for 2-3 minutes. To dislodge the cell, gently bang the side of the flask with your hand. Triturate the cells completely and then transfer the cells to 25 mL complete media. Centrifuge at 1,500 rpm for 6 min followed by resuspension in complete growth media and determine cell concentration. For typical re-seeding, 4E6 cells/T-225 flask will attain >80% confluency in 4 days. Under ideal growth conditions and appropriate tissue culture practices, this cell line is stable for 40-45 passages.
FluxOR Kit Components (Invitrogen F10017)
• FluxOR™ Reagent (Component A) • FluxOR™ Assay Buffer (Component B)—10× Concentrate • PowerLoad™ Concentrate (Component C)—100× Concentrate • Probenecid (Component D)—Lyophilized sample is kept at −20° C. Water soluble, 100× after solubilization in 1 mL water. Store at 4° C. • FluxOR™ Chloride-free Buffer (Component E)—5× Concentrate • Potassium sulfate (K2SO4) Concentrate (Component F)—125 mM in water. Store at 4° C. • Thallium sulfate (Tl2SO4) Concentrate (Component G)—50 mM in water. Store at 4° C. • DMSO (dimethyl sulfoxide, Component H)—1 mL (100%) Reagent Preparation: FluxOR Working Solutions • 1000× FluxOR™ Reagent: Reconstitute a vial of component A in 100 μl DMSO; Mix well; Store 10 μl aliquots at −20° C. • 1× FluxOR™ Assay Buffer: Dilute Component B 10-fold with water; Adjust pH to 7.4 with Hepes/NaOH; Filter and store at 4° C. • Probenecid/Assay Buffer: 100 mL of 1× FluxOR™ Assay Buffer; 1 mL of reconstituted component D; Store at 4° C. • Loading Buffer (per microplate): 10 μl 1000× FluxOR™ Reagent; 100 μl component C; 10 mL Probenecid/Assay Buffer • Compound Buffer (per microplate): 20 mL Probenecid/Assay Buffer; 0.3 mM ouabain (10 mM ouabain in water can be stored in amber bottle/aluminum foil at room temperature); Test compound • 1× FluxOR™ Chloride-Free Buffer: Prepare 1× working solution in water. Can be stored at room temperature • Stimulant Buffer (prepared at 5× final concentration in 1× FluxOR™Chloride-Free Buffer): 7.5 mM Thallium sulfate and 0.75 mM Potassium sulfate (to give a final assay concentration of 3 mM Thallium/0.3 mM Potassium). Store at 4° C. when not in use. If kept sterile, this solution is good for months.
Assay Protocol—The ROMK channel functional thallium flux assay is performed in 384 wells, using the FLIPR-Tetra instrument. HEK-hKir1.1 cells are seeded in Poly-D-Lysine microplates and kept in a 37° C.-10% CO2 incubator overnight. On the day of the experiment, the growth media is replaced with the FluxOR™ reagent loading buffer and incubated, protected from light, at ambient temperature (23-25° C.) for 90 min. The loading buffer is replaced with assay buffer± test compound followed by 30 min incubation at ambient temperature, where the Thallium/Potassium stimulant is added to the microplate.
• 1. Seed HEK-hKir1.1 cells (50 μl at 20,000 cells/well) in 384-well PDL coated Microplates • 2. Allow cells to adhere overnight in humidified 37° C./10% CO2 incubator • 3. Completely remove cell growth media from microplate and replace with 25 μl loading buffer • 4. Incubate Microplate at room temperature, protected form light, for 90 min • 5. Remove loading buffer and replace with 25 μl 1× Assay Buffer±test compound. • 6. Incubate microplate at room temperature, protected from light, for 30 min • 7. At FLIPR-Tetra 384: Add stimulant (Thallium/Potassium) solution to microplate and monitor fluorescence. Excitation=400 nm, Emission=460 & 580 nm. Collect data for ˜10 min. […]

**Q.** Which IC50 does the source give for `Cc1cc(C(=O)N[C@H]2CCN(C[C@H](O)c3ccc4c(c3C)COC4=O)C[C@H]2F)ccc1C#N` (single isomer, unassigned) [47 B] here?
**A.** The IC50 was 180 nM.

**Q.** With `Cc1c([C@@H](O)CN2CCC(NC(=O)c3ccc(-n4cnnn4)nn3)CC2)ccc2c1COC2=O` [Example 65, (R)-N-(1-(2-Hydroxy-2-(4-methyl-1-oxo-1,3-dihydroisobenzofuran-5-yl)ethyl)piperidin-4-yl)-6-(1H-tetrazol-1-yl)pyridazine-3-carboxamide] as the compound, how does the IC50 read?
**A.** The IC50 was 110 nM.

**Q.** How did the IC50 turn out when `Cc1c([C@@H](O)CN2CCC(CNC(=O)c3ccc4nonc4c3)C2)ccc2c1COC2=O` (stereo partly drawn) [Example 89, N-((1-((R)-2-Hydroxy-2-(4-methyl-1-oxo-1,3-dihydroisobenzofuran-5-yl)ethyl)pyrrolidin-3-yl)methyl)benzo[c][1,2,5]oxadiazole-5-carboxamide] was run?
**A.** Its IC50 is 260 nM.

**Q.** `Cc1c([C@@H](O)CN2CCC(NC(=O)c3ccc(-n4cccn4)nc3)CC2)ccc2c1COC2=O` [Example 73, (R)-N-(1-(2-Hydroxy-2-(4-methyl-1-oxo-1,3-dihydroisobenzofuran-5-yl)ethyl)piperidin-4-yl)-6-(1H-pyrazol-1-yl)nicotinamide] was tested. Which IC50 did it give?
**A.** The IC50 was 270 nM.

**Q.** How did the IC50 turn out when `Cc1c([C@@H](O)CN2CCCC(C)(CNC(=O)c3ccc(-n4cnnn4)cn3)C2)ccc2c1COC2=O` (stereo partly drawn) [Example 67, N-((1-((R)-2-Hydroxy-2-(4-methyl-1-oxo-1,3-dihydroisobenzofuran-5-yl)ethyl)-3-methylpiperidin-3-yl)methyl)-5-(1H-tetrazol-1-yl)picolinamide] was run?
**A.** Its IC50 is 360 nM.

**Q.** How did the IC50 turn out when `Cc1c([C@@H](O)CN2CCC(C)(NC(=O)c3ccc4nonc4c3)CC2)ccc2c1COC2=O` [Example 77, (R)-N-(1-(2-Hydroxy-2-(4-methyl-1-oxo-1,3-dihydroisobenzofuran-5-yl)ethyl)-4-methylpiperidin-4-yl)benzo[c][1,2,5]oxadiazole-5-carboxamide] was run?
**A.** The IC50 was 530 nM.

**Q.** With `Cc1c([C@@H](O)CN2CCC(NC(=O)c3ccc(C#N)cn3)CC2)ccc2c1COC2=O` [Example 28, (R)-5-Cyano-N-(1-(2-hydroxy-2-(4-methyl-1-oxo-1,3-dihydroisobenzofuran-5-yl)ethyl)piperidin-4-yl)picolinamide] as the compound, how does the IC50 read?
**A.** Its IC50 is 30 nM.

**Q.** With `COc1cc(C(=O)NC2CCN(C[C@H](O)c3ccc4c(c3C)COC4=O)CC2)ccc1C#N` [Example 57, (R)-4-Cyano-N-(1-(2-hydroxy-2-(4-methyl-1-oxo-1,3-dihydroisobenzofuran-5-yl)ethyl)piperidin-4-yl)-3-methoxybenzamide] as the compound, how does the IC50 read?
**A.** Its IC50 is 320 nM.

**Q.** For `CCOc1cc(C#N)ccc1C(=O)NC1CCN(C[C@H](O)c2ccc3c(c2C)COC3=O)CC1` [Example 26, (R)-4-Cyano-2-ethoxy-N-(1-(2-hydroxy-2-(4-methyl-1-oxo-1,3-dihydroisobenzofuran-5-yl)ethyl)piperidin-4-yl)benzamide], which IC50 is on record?
**A.** Its IC50 is 70 nM.

**Q.** `Cc1c(CCN2CCC(NC(=O)c3cccc(-n4cnnn4)c3)CC2)ccc2c1COC2=O` [Example 30, N-(1-(2-(4-Methyl-1-oxo-1,3-dihydroisobenzofuran-5-yl)ethyl)piperidin-4-yl)-3-(1H-tetrazol-1-yl)benzamide] was tested. Which IC50 did it give?
**A.** Its IC50 is 120 nM.

**Q.** How did the IC50 turn out when `Cc1c(CCN2CCC(NC(=O)c3ccc(C#N)c(F)c3)CC2)ccc2c1COC2=O` [Example 11, 4-Cyano-3-fluoro-N-(1-(2-(4-methyl-1-oxo-1,3-dihydroisobenzofuran-5-yl)ethyl)piperidin-4-yl)benzamide] was run?
**A.** The IC50 was 30 nM.

**Q.** How did the IC50 turn out when `Cc1c([C@@H](O)CN2CCC(NC(=O)c3ccc(-c4ccon4)cc3)CC2)ccc2c1COC2=O` [Example 35, (R)-N-(1-(2-Hydroxy-2-(4-methyl-1-oxo-1,3-dihydroisobenzofuran-5-yl)ethyl)piperidin-4-yl)-4-(isoxazol-3-yl)benzamide] was run?
**A.** The IC50 was 60 nM.

**Q.** For `Cc1cc(C(=O)NC2CCN(C[C@H](O)c3ccc4c(c3C)COC4=O)CC2)ncc1-n1cnnn1` [Example 59, (R)-N-(1-(2-Hydroxy-2-(4-methyl-1-oxo-1,3-dihydroisobenzofuran-5-yl)ethyl)piperidin-4-yl)-4-methyl-5-(1H-tetrazol-1-yl)picolinamide], which IC50 is on record?
**A.** The IC50 was 90 nM.

**Q.** `Cc1c(CCN2CCC(N(C)C(=O)c3ccc4c(c3)COC4=O)CC2)ccc2c1COC2=O` [Example 2, N-Methyl-N-(1-(2-(4-methyl-1-oxo-1,3-dihydroisobenzofuran-5-yl)ethyl)piperidin-4-yl)-1-oxo-1,3-dihydroisobenzofuran-5-carboxamide] was tested. Which IC50 did it give?
**A.** The IC50 was 600 nM.

**Q.** `Cc1c(C(O)CN2CCC(NC(=O)c3ccc4c(c3)COC4=O)CC2)ccc(F)c1C#N` (stereo not shown) [Example 13, N-(1-(2-(3-Cyano-4-fluoro-2-methylphenyl)-2-hydroxyethyl)piperidin-4-yl)-1-oxo-1,3-dihydroisobenzofuran-5-carboxamide] was tested. Which IC50 did it give?
**A.** Its IC50 is 350 nM.

**Q.** With `Cc1cc(C(=O)NC2(C)CCN(C[C@H](O)c3ccc4c(c3C)COC4=O)CC2)ncc1-n1cnnn1` [Example 63, (R)-N-(1-(2-Hydroxy-2-(4-methyl-1-oxo-1,3-dihydroisobenzofuran-5-yl)ethyl)-4-methylpiperidin-4-yl)-4-methyl-5-(1H-tetrazol-1-yl)picolinamide] as the compound, how does the IC50 read?
**A.** Its IC50 is 860 nM.

**Q.** With `Cc1c([C@@H](O)CN2CCC(NC(=O)c3ccc(-n4cnnn4)nc3)CC2)ccc2c1COC2=O` [Example 49, (R)-N-(1-(2-Hydroxy-2-(4-methyl-1-oxo-1,3-dihydroisobenzofuran-5-yl)ethyl)piperidin-4-yl)-6-(1H-tetrazol-1-yl)nicotinamide] as the compound, how does the IC50 read?
**A.** The IC50 was 150 nM.

**Q.** `Cc1c([C@@H](O)CN2CCC(NC(=O)c3ccc4nonc4c3)CC2)ccc2c1COC2=O` [Example 66, (R)-N-(1-(2-Hydroxy-2-(4-methyl-1-oxo-1,3-dihydroisobenzofuran-5-yl)ethyl)piperidin-4-yl)benzo[c][1,2,5]oxadiazole-5-carboxamide] was tested. Which IC50 did it give?
**A.** The IC50 was 220 nM.

**Q.** For `Cc1c([C@@H](O)CN2CCC(NC(=O)c3cccc(-n4cnnn4)c3)CC2)ccc2c1COC2=O` [Example 36, (R)-N-(1-(2-Hydroxy-2-(4-methyl-1-oxo-1,3-dihydroisobenzofuran-5-yl)ethyl)piperidin-4-yl)-3-(1H-tetrazol-1-yl)benzamide], which IC50 is on record?
**A.** Its IC50 is 450 nM.

**Q.** Which IC50 does the source give for `CO[C@@H]1CN(C[C@H](O)c2ccc3c(c2C)COC3=O)CC[C@@H]1NC(=O)c1ccc(-n2cnnn2)nc1` (single isomer, unassigned) [54 A] here?
**A.** The IC50 was 760 nM.

**Q.** `Cc1cc(C(=O)NC2CCN(C[C@H](O)c3ccc4c(c3C)COC4=O)CC2)ncc1C#N` [Example 22, (R)-5-cyano-N-(1-(2-hydroxy-2-(4-methyl-1-oxo-1,3-dihydroisobenzofuran-5-yl)ethyl)piperidin-4-yl)-4-methylpicolinamide] was tested. Which IC50 did it give?
**A.** Its IC50 is 20 nM.

**Q.** How did the IC50 turn out when `Cc1cc(C(=O)N[C@H]2CCN(C[C@H](O)c3ccc4c(c3C)COC4=O)C[C@H]2F)ccc1C#N` (single isomer, unassigned) [47 A] was run?
**A.** Its IC50 is 160 nM.
